Where “and” joins values, the source holds several entries; their conditions need not be identical. Identical values can stand only once.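 Tested at 5 concentrations; 48 h exposure; 96-well plates; endpoints linearly interpolated, else capped at highest concentration. Abbreviation: GI50, concentration required for 50% inhibition of growth.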 Calls of active or inactive are those of the source. Rule as the data show it: active = GI50 up to about 1.1 µM and inactive = higher.
Experiments:
Assay in all cases: inhibition of tumour cell growth, NCI panel, 48 h
786-0 = system: 786-0
A498 = system: A498
A549 = system: A549
ACHN = system: ACHN
BT-549 = system: BT-549
CAKI-1 = system: CAKI-1
CCRF-CEM = system: CCRF-CEM
COLO 205 = system: COLO 205
DU-145 = system: DU-145
HCC 2998 = system: HCC 2998
HCT-116 = system: HCT-116
HCT-15 = system: HCT-15
HL-60 = system: HL-60
HOP-62 = system: HOP-62
HOP-92 = system: HOP-92
HT-29 = system: HT-29
Hs-578T = system: Hs-578T
IGROV-1 = system: IGROV-1
K562 = system: K562
KM12 = system: KM12
LOX IMVI = system: LOX IMVI
M14 = system: M14
MDA-MB-231 = system: MDA-MB-231
MDA-N = system: MDA-N
MOLT-4 = system: MOLT-4
Malme-3M = system: Malme-3M
NCI-H226 = system: NCI-H226
NCI-H23 = system: NCI-H23
NCI-H460 = system: NCI-H460
NCI-H522 = system: NCI-H522
NCI/ADR-RES = system: NCI/ADR-RES
OVCAR-3 = system: OVCAR-3
OVCAR-4 = system: OVCAR-4
OVCAR-5 = system: OVCAR-5
PC-3 = system: PC-3
RPMI-8226 = system: RPMI-8226
RXF 393 = system: RXF 393
SF-268 = system: SF-268
SF-295 = system: SF-295
SF-539 = system: SF-539
SK-MEL-28 = system: SK-MEL-28
SK-MEL-2 = system: SK-MEL-2
SK-MEL-5 = system: SK-MEL-5
SK-OV-3 = system: SK-OV-3
SN12C = system: SN12C
SNB-19 = system: SNB-19
SNB-75 = system: SNB-75
SR = system: SR
SW-620 = system: SW-620
T47D = system: T47D
TK-10 = system: TK-10
U-251 = system: U-251
UACC-257 = system: UACC-257
UACC-62 = system: UACC-62
UO-31 = system: UO-31
EKVX = system: EKVX
MCF7 = system: MCF7
MDA-MB-435 = system: MDA-MB-435
OVCAR-8 = system: OVCAR-8

O=c1cc(NNc2cccc(F)c2)[nH]c(=O)[nH]1
GI50 (786-0): 16.6 µM (inactive) | GI50 (A498): > 100 µM (inactive) | GI50 (A549): > 100 µM (inactive) | GI50 (ACHN): 35.6 µM (inactive) | GI50 (BT-549): > 100 µM (inactive) | GI50 (CAKI-1): 16.4 µM (inactive) | GI50 (CCRF-CEM): 22.4 µM (inactive) | GI50 (COLO 205): 34.6 µM (inactive) | GI50 (DU-145): > 100 µM (inactive) | GI50 (HCC 2998): 95.9 µM (inactive) | GI50 (HCT-116): 17.3 µM (inactive) | GI50 (HCT-15): 16.9 µM | GI50 (HL-60): 19.1 µM (inactive) | GI50 (HOP-62): > 100 µM (inactive) | GI50 (HOP-92): 16.3 µM (inactive) | GI50 (HT-29): 16.3 µM (inactive) | GI50 (Hs-578T): 83 µM (inactive) | GI50 (IGROV-1): 19.8 µM (inactive) | GI50 (K562): 27.3 µM (inactive) | GI50 (KM12): > 100 µM (inactive) | GI50 (LOX IMVI): 18 µM (inactive) | GI50 (M14): 18.2 µM (inactive) | GI50 (MDA-MB-231): 16.7 µM (inactive) | GI50 (MDA-N): 80.2 µM (inactive) | GI50 (MOLT-4): 27.9 µM (inactive) | GI50 (Malme-3M): 19.4 µM (inactive) | GI50 (NCI-H226): > 100 µM (inactive) | GI50 (NCI-H23): > 100 µM (inactive) | GI50 (NCI-H460): > 100 µM (inactive) | GI50 (NCI-H522): 18.3 µM (inactive) | GI50 (NCI/ADR-RES): > 100 µM (inactive) | GI50 (OVCAR-3): 16.5 µM (inactive) | GI50 (OVCAR-4): > 100 µM (inactive) | GI50 (OVCAR-5): > 100 µM (inactive) | GI50 (PC-3): > 100 µM (inactive) | GI50 (RPMI-8226): 16.7 µM (inactive) | GI50 (RXF 393): 20.5 µM (inactive) | GI50 (SF-268): > 100 µM (inactive) | GI50 (SF-295): > 100 µM (inactive) | GI50 (SF-539): 38.9 µM (inactive) | GI50 (SK-MEL-28): > 100 µM (inactive) | GI50 (SK-MEL-2): 40.5 µM (inactive) | GI50 (SK-MEL-5): > 100 µM (inactive) | GI50 (SK-OV-3): > 100 µM (inactive) | GI50 (SN12C): > 100 µM (inactive) | GI50 (SNB-19): > 100 µM (inactive) | GI50 (SNB-75): > 100 µM (inactive) | GI50 (SR): 10.2 µM (inactive) | GI50 (SW-620): 18.6 µM (inactive) | GI50 (T47D): 14.9 µM (inactive) | GI50 (TK-10): 14.2 µM (inactive) | GI50 (U-251): 17.2 µM (inactive) | GI50 (UACC-257): 17.9 µM (inactive) | GI50 (UACC-62): 35 µM (inactive) | GI50 (UO-31): 29.4 µM (inactive)

CC(C)(Br)C(Br)CCC1(C(Br)CBr)CO1 (centres undefined)
GI50 (786-0): > 10 µM (inactive) | GI50 (A498): > 10 µM (inactive) | GI50 (A549): > 10 µM (inactive) | GI50 (ACHN): > 10 µM (inactive) | GI50 (BT-549): > 10 µM (inactive) | GI50 (CAKI-1): > 10 µM (inactive) | GI50 (CCRF-CEM): > 10 µM (inactive) | GI50 (COLO 205): > 10 µM (inactive) | GI50 (DU-145): > 10 µM (inactive) | GI50 (EKVX): > 10 µM (inactive) | GI50 (HCC 2998): > 10 µM (inactive) | GI50 (HCT-116): > 10 µM (inactive) | GI50 (HL-60): > 10 µM (inactive) | GI50 (HOP-62): > 10 µM (inactive) | GI50 (HOP-92): > 10 µM (inactive) | GI50 (HT-29): > 10 µM (inactive) | GI50 (IGROV-1): > 10 µM (inactive) | GI50 (K562): > 10 µM (inactive) | GI50 (KM12): > 10 µM (inactive) | GI50 (M14): > 10 µM (inactive) | GI50 (MCF7): > 10 µM (inactive) | GI50 (MDA-MB-231): > 10 µM (inactive) | GI50 (MDA-MB-435): > 10 µM (inactive) | GI50 (MDA-N): > 10 µM (inactive) | GI50 (MOLT-4): > 10 µM (inactive) | GI50 (NCI-H226): > 10 µM (inactive) | GI50 (NCI-H23): > 10 µM (inactive) | GI50 (NCI-H522): > 10 µM (inactive) | GI50 (OVCAR-3): > 10 µM (inactive) | GI50 (OVCAR-4): > 10 µM (inactive) | GI50 (OVCAR-5): > 10 µM (inactive) | GI50 (OVCAR-8): > 10 µM (inactive) | GI50 (PC-3): > 10 µM (inactive) | GI50 (RPMI-8226): > 10 µM (inactive) | GI50 (RXF 393): > 10 µM (inactive) | GI50 (SF-268): > 10 µM (inactive) | GI50 (SF-295): > 10 µM (inactive) | GI50 (SF-539): > 10 µM (inactive) | GI50 (SK-MEL-28): > 10 µM (inactive) | GI50 (SK-MEL-5): > 10 µM (inactive) | GI50 (SK-OV-3): > 10 µM (inactive) | GI50 (SN12C): > 10 µM (inactive) | GI50 (SNB-19): > 10 µM (inactive) | GI50 (SNB-75): > 10 µM (inactive) | GI50 (SR): > 10 µM (inactive) | GI50 (SW-620): > 10 µM (inactive) | GI50 (T47D): > 10 µM (inactive) | GI50 (TK-10): > 10 µM (inactive) | GI50 (U-251): > 10 µM (inactive) | GI50 (UACC-62): > 10 µM (inactive) | GI50 (UO-31): > 10 µM (inactive)

O=C(/C=C/c1ccccc1)c1ccccn1
GI50 (786-0): 12.3 µM (inactive) and 17.2 µM (inactive) | GI50 (A498): 13 µM (inactive) and 17.5 µM (inactive) | GI50 (A549): 19.4 µM (inactive) and 32.6 µM (inactive) | GI50 (ACHN): 15.5 µM (inactive) and 16.9 µM (inactive) | GI50 (BT-549): 24 µM (inactive) and 18.8 µM (inactive) | GI50 (CAKI-1): 26.2 µM (inactive) and 16.6 µM (inactive) | GI50 (CCRF-CEM): 10 µM (inactive) and 17.1 µM (inactive) | GI50 (COLO 205): 18.6 µM (inactive) and 22.2 µM (inactive) | GI50 (DU-145): 12.4 µM (inactive) and 18.3 µM (inactive) | GI50 (EKVX): 22 µM (inactive) and 18.1 µM (inactive) | GI50 (HCC 2998): 13.8 µM (inactive) and 19.3 µM (inactive) | GI50 (HCT-15): 11.8 µM and 18.5 µM | GI50 (HOP-92): 19.1 µM (inactive) | GI50 (HT-29): 20.7 µM (inactive) and 15.5 µM (inactive) | GI50 (Hs-578T): 22.6 µM (inactive) | GI50 (IGROV-1): 10.5 µM (inactive) and 17.4 µM (inactive) | GI50 (KM12): 19.1 µM (inactive) and 14.4 µM (inactive) | GI50 (LOX IMVI): 10.9 µM (inactive) and 17.6 µM (inactive) | GI50 (M14): 14.5 µM (inactive) | GI50 (MCF7): 16 µM (inactive) | GI50 (MDA-MB-435): 26.5 µM (inactive) and 18.9 µM (inactive) | GI50 (MDA-N): 16.9 µM (inactive) and 27.2 µM (inactive) | GI50 (MOLT-4): 23.8 µM (inactive) | GI50 (NCI-H226): 16.6 µM (inactive) and 26.7 µM (inactive) | GI50 (NCI-H23): 17.9 µM (inactive) and 17.5 µM (inactive) | GI50 (NCI-H460): 16.7 µM (inactive) and 21.3 µM (inactive) | GI50 (NCI-H522): 17.8 µM (inactive) and 15.1 µM (inactive) | GI50 (NCI/ADR-RES): 22.2 µM (inactive) and 28.4 µM (inactive) | GI50 (OVCAR-3): 12.7 µM (inactive) and 16.4 µM (inactive) | GI50 (OVCAR-4): 17.3 µM (inactive) and 20.6 µM (inactive) | GI50 (OVCAR-8): 17.6 µM (inactive) and 25.1 µM (inactive) | GI50 (PC-3): 19.1 µM (inactive) and 21.1 µM (inactive) | GI50 (RXF 393): 19.2 µM (inactive) and 18.6 µM (inactive) | GI50 (SF-295): 24 µM (inactive) and 18.4 µM (inactive) | GI50 (SF-539): 17.8 µM (inactive) | GI50 (SK-MEL-28): 17 µM (inactive) and 26.2 µM (inactive) | GI50 (SK-MEL-2): 19.2 µM (inactive) | GI50 (SK-MEL-5): 14 µM (inactive) and 26.1 µM (inactive) | GI50 (SK-OV-3): 27.4 µM (inactive) and 38.5 µM (inactive) | GI50 (SN12C): 14.3 µM (inactive) and 17.2 µM (inactive) | GI50 (SNB-75): 24.5 µM (inactive) and 16 µM (inactive) | GI50 (SW-620): 18.7 µM (inactive) and 29.8 µM (inactive) | GI50 (T47D): 23.8 µM (inactive) and 13 µM (inactive) | GI50 (TK-10): 19 µM (inactive) and 15.2 µM (inactive) | GI50 (U-251): 14.3 µM (inactive) and 17.9 µM (inactive) | GI50 (UACC-257): 13.2 µM (inactive) and 16.4 µM (inactive) | GI50 (UACC-62): 16.6 µM (inactive) and 20.6 µM (inactive) | GI50 (UO-31): 17.3 µM (inactive) and 20.6 µM (inactive)
